# Values of other authors in the PKSmart pharmacokinetics tables (Seal et al. 2025).
# *1 amine or outer side, *2 acyl side, *3 side chain or, on linkers, in order; H or OH if unused. Where a SMILES comes first, the peptide text is derived from it. Bridges are numbered along the chain shown (N, C = ends). [ ]: non-standard residue; d: D form. The star is where a group is joined. ξ: configuration not given here. X2 = CC[C@H](C)[C@@H](N[*:1])[C@@H](O)CC(=O)OC(C(=O)C(C)C(=O)[*:2])C(C)C; ξThr(3R)(O-yl) = C[C@@H](O[*:3])C(N[*:1])C(=O)[*:2]; ξNMeY = CNC(Cc1ccc(O)cc1)C(=O)O; ξNMeL = CNC(CC(C)C)C(=O)O; Pyruvoyl = CC(=O)C(=O)*; ξL = CC(C)CC(N)C(=O)O; ξP = O=C(O)C1CCCN1
# Assay: Lombardo, Berellini, Obach 2018, Drug Metab Dispos 46:1466, doi 10.1124/dmd.118.082966
# Settings: human; for MRT / Vd / clearance / half-life: in vivo, iv; for fraction unbound: plasma
Compound,MRT,Vd,clearance,half-life,fraction unbound
O=C(O)CCCc1ccc(N(CCCl)CCCl)cc1,1.5 h,0.26 L/kg,2.8 mL/min/kg,1.1 h,–
CN[C@@H]1[C@@H](O)[C@@H](O[C@@H]2[C@@H](O)[C@H](O[C@H]3O[C@H]([C@@H](C)N)CC[C@H]3N)[C@@H](N)C[C@H]2N)OC[C@]1(C)O,–,–,–,–,1
O=C(O)CCCCON=C(c1cccnc1)c1cccc(C(F)(F)F)c1,6.8 h,0.43 L/kg,1.05 mL/min/kg,7.54 h,0.033
CC[C@H]1C2C[C@H]3[C@@H]4N(C)c5ccccc5C45C[C@@H](C2[C@H]5O)N3[C@@H]1O (stereo not given in full),6.8 h,4 L/kg,9.8 mL/min/kg,7.3 h,0.24
S=P(N1CC1)(N1CC1)N1CC1,4 h,1.6 L/kg,6.7 mL/min/kg,2.7 h,–
NC(=O)CN1CC(O)CC1=O (stereo not given),4.9 h,0.55 L/kg,1.8 mL/min/kg,7.5 h,–
COc1cc2c(cc1OC)CN(CCc1ccc(NC(=O)c3cc(OC)c(OC)cc3NC(=O)c3cnc4ccccc4c3)cc1)CC2,38 h,6.4 L/kg,2.8 mL/min/kg,29 h,–
CN(c1nc2ccccc2s1)C1CCN(C[C@@H](O)COc2ccc(F)cc2)CC1,22.6 h,5.5 L/kg,4.05 mL/min/kg,18.9 h,0.014
CC[C@H](C)[C@H]1NC(=O)C(NC(=O)C(CC(C)C)N(C)C(=O)C2CCCN2C(=O)C(C)=O)[C@@H](C)OC(=O)C(Cc2ccc(OC)cc2)N(C)C(=O)C2CCCN2C(=O)C(CC(C)C)NC(=O)C(C)C(=O)C(C(C)C)OC(=O)C[C@@H]1O (stereo partly drawn) (Pyruvoyl-[ξP][ξNMeL][ξThr(3R)(O-yl)][X2][ξL][ξP][ξNMeY](Me); ester 3-C),14.5 h,6.95 L/kg,8.05 mL/min/kg,16.6 h,–
C[C@@H](NCCc1ccc(O)cc1)[C@@H](O)c1ccc(O)cc1,2.4 h,4.4 L/kg,31 mL/min/kg,2.6 h,0.64
CN(C)CCN(Cc1cccs1)c1ccccn1,2 h,3.3 L/kg,28 mL/min/kg,1.6 h,–
CSCCC(N)C(=O)NC(CCC(=O)O)C(=O)NC(Cc1cnc[nH]1)C(=O)NC(Cc1ccccc1)C(=O)NC(CCCN=C(N)N)C(=O)NC(Cc1c[nH]c2ccccc12)C(=O)NCC(=O)O (stereo not given),0.01 h,0.73 L/kg,871 mL/min/kg,0.06 h,–
CN1CC[C@]23CCCC[C@H]2[C@H]1Cc1ccc(O)cc13,12.2 h,11.5 L/kg,15.7 mL/min/kg,13.5 h,0.6
CSCCNc1nc(SCCC(F)(F)F)nc2c1ncn2[C@@H]1O[C@H](CO[P@](=O)(O)O[P@](=O)(O)C(Cl)(Cl)P(=O)(O)O)[C@@H](O)[C@H]1O,0.07 h,0.035 L/kg,9.06 mL/min/kg,0.14 h,0.02
Cc1c(F)c(N2CCN[C@H](C)C2)cc2c1c(=O)c(C(=O)O)cn2C1CC1,–,–,5.9 mL/min/kg,9.2 h,0.82
CNC(=O)CC(N)C(=O)NC(C(=O)NC1C(=O)N2C(C(=O)O)C(C)(C)S[C@H]12)c1ccc(O)cc1 (stereo not given in full),1.61 h,0.27 L/kg,2.82 mL/min/kg,1.45 h,–

Compound,MRT,Vd,clearance,half-life,fraction unbound
Nc1nc(Cl)nc2c1ncn2[C@H]1C[C@H](O)[C@@H](CO)O1,9.2 h,7.7 L/kg,14 mL/min/kg,16 h,0.79
CC(C)=CCC[C@](C)(O[C@@H]1O[C@H](CO)[C@@H](O)[C@H](O)[C@H]1O)[C@H]1CC[C@]2(C)[C@@H]1[C@H](O)C[C@@H]1[C@@]3(C)CC[C@H](O[C@@H]4O[C@H](CO)[C@@H](O)[C@H](O)[C@H]4O[C@@H]4O[C@H](CO)[C@@H](O)[C@H](O)[C@H]4O)C(C)(C)[C@@H]3CC[C@]12C,20.2 h,0.11 L/kg,0.09 mL/min/kg,18.5 h,–
NCCCCCC(=O)O,2.6 h,0.39 L/kg,2.5 mL/min/kg,4.9 h,0.92
Cc1cccc([C@H](C)c2c[nH]cn2)c1C,2.5 h,1.6 L/kg,11 mL/min/kg,2.2 h,0.06
CN(C)CCCN1c2ccccc2Sc2ccccc21,9.6 h,8.1 L/kg,14 mL/min/kg,7.9 h,0.11
CC(=O)Nc1c(I)c(C(=O)O)c(I)c(N(C)C(C)=O)c1I,1 h,0.17 L/kg,2.7 mL/min/kg,1.3 h,1
CN1C(=O)CC[C@H]1c1cccnc1,21 h,1.1 L/kg,0.89 mL/min/kg,17 h,–
O=C1NC(c2ccccc2)(c2ccccc2)C(=O)N1COP(=O)(O)O,0.17 h,0.06 L/kg,3.5 mL/min/kg,0.16 h,0.05
CN1[C@@H]2CCC[C@H]1C[C@@H](NC(=O)c1nn(C)c3ccccc13)C2,6.7 h,3.7 L/kg,9.1 mL/min/kg,5.2 h,–
Cc1nc(NNC(=O)C(CC2CCCC2)CN(O)C=O)c(F)c(N2CCN3CCOCC3C2)n1 (stereo not given),2.2 h,0.75 L/kg,5.6 mL/min/kg,4.2 h,–
C[N+]1(CC2CC2)CC[C@]23c4c5ccc([O-])c4OC2C(=O)CC[C@@]3(O)[C@H]1C5 (stereo not given in full),–,–,–,–,0.87
CCCCCc1cc(O)c2c(c1)OC(C)(C)[C@@H]1CCC(C(=O)O)=C[C@@H]21,18.1 h,1.28 L/kg,1.2 mL/min/kg,17.6 h,–
CCN(CC)Cc1cc(Nc2ccnc3cc(Cl)ccc23)ccc1O,1.34 h,17.4 L/kg,217 mL/min/kg,2.1 h,–
C[C@](N)(Cc1ccc(O)c(O)c1)C(=O)O,3.3 h,0.69 L/kg,3.5 mL/min/kg,5.9 h,–
COc1ccc([C@@H]2Sc3cc(Cl)ccc3N(CCN(C)C)C(=O)C2OC(C)=O)cc1 (stereo not given in full),12.3 h,9.7 L/kg,13.7 mL/min/kg,10.6 h,0.1
OC(c1ccccc1)(c1ccccc1)C12CC[N+](CCOCc3ccccc3)(CC1)CC2,0.57 h,1.23 L/kg,36 mL/min/kg,19 h,0.11
